Results taken from ChEMBL document CHEMBL3046855, “Chemical control of Prosopis farcta (Banks and Sol.) Macbride in the Jordan Valley” (2007).

Key:
Format in all cases: functional
Prosopis farcta [1] = assay: Herbicidal activity against Prosopis farcta assessed as shoot fresh weight at 1000 l/ha applied once (reference value: 1.72 metric tons/ha)
Prosopis farcta [2] = assay: Herbicidal activity against Prosopis farcta assessed as shoot fresh weight at 1000 l/ha applied twice (reference value: 4.18 metric tons/ha)
Prosopis farcta [3] = assay: Herbicidal activity against Prosopis farcta assessed as shoot dry weight at 1000 l/ha applied twice (reference value: 1.528 metric tons/ha)
Prosopis farcta [4] = assay: Herbicidal activity against Prosopis farcta assessed as shoot dry weight at 1000 l/ha applied twice followed by harvest measured after vegetative regrowth (reference value: 2.784 metric tons/ha)
Prosopis farcta [5] = assay: Herbicidal activity against Prosopis farcta assessed as shoot dry weight at 1000 l/ha applied once (reference value: 0.833 metric tons/ha)
Prosopis farcta [6] = assay: Herbicidal activity against Prosopis farcta assessed as shoot dry weight at 1000 l/ha applied once followed by harvest measured after vegetative regrowth (reference value: 1.593 metric tons/ha)
Prosopis farcta [7] = assay: Herbicidal activity against Prosopis farcta assessed as shoot fresh weight at 1000 l/ha applied twice followed by harvest measured after vegetative regrowth (reference value: 3.53 metric tons/ha)
Prosopis farcta [8] = assay: Herbicidal activity against Prosopis farcta assessed as shoot fresh weight at 1000 l/ha applied once followed by harvest measured after vegetative regrowth (reference value: 2.062 metric tons/ha)

Compound | Activity (Prosopis farcta [1]) | Activity (Prosopis farcta [2]) | Activity (Prosopis farcta [3]) | Activity (Prosopis farcta [4]) | Activity (Prosopis farcta [5]) | Activity (Prosopis farcta [6]) | Activity (Prosopis farcta [7]) | Activity (Prosopis farcta [8])
CCCCC(CC)COC(=O)COc1ccc(Cl)cc1Cl (stereo unspecified) | 1.33 MT/ha | 0.8 MT/ha | 0.365 MT/ha | 0.063 MT/ha | 0.625 MT/ha | 0.213 MT/ha | 0.1 MT/ha | 0.277 MT/ha
CNC.O=C(O)COc1ccc(Cl)cc1Cl [2,4-D-Dimethylammonium] | 1.27 MT/ha | 0.8 MT/ha | 0.345 MT/ha | 0.511 MT/ha | 0.593 MT/ha | 0.144 MT/ha | 0.58 MT/ha | 0.323 MT/ha
O=C(O)CNCP(=O)(O)O [GLYPHOSATE] | 1.05 MT/ha | 0.71 MT/ha | 0.32 MT/ha | 0.976 MT/ha | 0.491 MT/ha | 0.317 MT/ha | 1.23 MT/ha | 0.432 MT/ha
Cc1cc(Cl)ccc1OC(C)C(=O)O (stereo unspecified) [MECOPROP] | 0.9 MT/ha | 0.93 MT/ha | 0.403 MT/ha | 1.125 MT/ha | 0.423 MT/ha | 0.527 MT/ha | 1.46 MT/ha | 0.655 MT/ha
CCOc1cc(Oc2ccc(C(F)(F)F)cc2Cl)ccc1[N+](=O)[O-] [OXYFLUORFEN] | 0.6 MT/ha | 0.96 MT/ha | 0.479 MT/ha | 1.147 MT/ha | 0.26 MT/ha | 3.481 MT/ha | 1.47 MT/ha | 4.511 MT/ha
C[n+]1ccc(-c2cc[n+](C)cc2)cc1 [PARAQUAT] | 1.27 MT/ha | 0.93 MT/ha | 0.404 MT/ha | 0.764 MT/ha | 0.593 MT/ha | 0.647 MT/ha | 0.91 MT/ha | 0.757 MT/ha
O=C(O)COc1nc(Cl)c(Cl)cc1Cl [TRICLOPYR] | 1.21 MT/ha | 1.07 MT/ha | 0.461 MT/ha | 0.05 MT/ha | 0.567 MT/ha | 0.231 MT/ha | 0.05 MT/ha | 0.301 MT/ha
